Test results reported in paper PMC6222829, “Synthesis, Molecular Docking and Anticancer Activity of Diflunisal Derivatives as Cyclooxygenase Enzyme Inhibitors” (Molecules : A Journal of Synthetic Chemistry and Natural …, 2018).
Entries after “also recorded” stand apart in the source; their conditions may differ. Where two headings read alike, the source gives them in different places.

How the values were obtained:
[1] = tested on: PC-3 cell line; set-up: method as in PMID 20658169, PMID 26580554; conditions: literature value ref 42,43; cited from earlier work
[2] = tested on: T47D cell line; set-up: method as in PMID 20658169, PMID 26580554; conditions: literature value ref 42,43; cited from earlier work
[3] = tested on: HCT116 cell line; set-up: method as in PMID 20658169, PMID 26580554; conditions: literature value ref 42,43; cited from earlier work
[4] = tested on: HEK293 cell line; assay: MTS cytotoxicity assay, HEK293; type: cell-based, human; conditions: normal cell line; for IC50: Homo sapiens, HEK293, MTS assay, 72 h incubation
Description: (§1) In this project, the colorectal cancer cell line HCT116 (ATCC® CCL-247™), […] prostate cancer cell line PC-3 (ATCC® CRL-1435™), breast cancer cell lines T47D (ATCC® HTB-133™), MCF7 (ATCC® HTB-22™) and finally, epithelial embryonic kidney cell line HEK293 (ATCC® CRL-1573™) were used. All media were completed with %10 fetal bovine serum (FBS) and %1 penicillin streptomycin amphotericin (PSA). All cells were cultured periodically at 37 °C, 5% (v/v) CO2 and 95% (v/v) air in T-75 flasks. Different media were used for the different cell lines based on ATCC standards: MCF7 and HEK293 cell lines were cultured in DMEM High Mmedium (ATCC, 30-2003); T47D and PC-3 cell lines were cultured in RPM 1640 medium (ATCC, 30-2001); HCT116 cell line was cultured in DMEM F12 medium (ATCC, 30-2006). RPM 1640 medium was further completed with 0.2 unit/mL bovine insulin for the T47D cell line. Cells were passaged when they reached %80 confluency in order to support proliferation.
(§2) The effects of the synthesized compounds on the cell viability were tested. Stock solutions for each compound were prepared by measuring 20 mg of each compound and dissolving it in 1 mL DMSO to a final concentration of […], followed by filtration through a 0.2-μm filter (Sartorius AG, Gottingen, Germany). Then stock solutions were diluted as 1/10, 1/100 and 1/1000 in the designated media and applied on the cell lines. In order to determine the effect of DMSO itself, the same dilutions were performed by using DMSO, only and applied on the cell lines. Cell densities used for each cell line in 96 well plate were as follows: for PC-3, HCT116 and HEK293 cell lines 5000 cells/well; for T47D cell lines 20,000 cells/well. Cell viability was measured by the MTS cytotoxicity assay (CellTiter96 AqueousOne Solution; Promega, Southampton, UK) according to the manufacturer’s instructions. 3-(4,5-Dimethylthiazol-2-yl)-5-(3-carboxymethoxyphenyl)-2-(4-sulfo-phenyl)-2H-tetrazolium (MTS) is a yellow tetrazolium salt which is catabolized to formazan by dehydrogenase enzyme in the mitochondria of the living cells. Formazan is a purple compound and the detection in this assay is based on the measurement of formazan compounds by an ELISA plate reader. After incubating the cells for 72 h, 10 µL MTS reagent and 100 µL designated medium was given to the cells followed by 2 h of incubation at 37 °C. Thereafter, the absorbance at 490 nm was measured by an ELISA plate reader. (BioTek Instruments, Inc., Winooski, VT, USA). The activity doses of the compounds were determined according to 50% cell death rate when compared to DMSO, only after 72 h of incubation. […] IC50 values are calculated by the GraphPad prism software.

[5] = tested on: T47D cell line; assay: MTS cytotoxicity assay, T47D; type: cell-based, human; set-up: key to IC50 T47D: PCV: Promoting cell viability; NSC: No significant change; conditions: for IC50 T47D / IC50: MTS assay, 72 h incubation; for IC50: Homo sapiens, T47D
Description: as §1, §2

[6] = tested on: PC-3 cell line; assay: MTS cytotoxicity assay, PC-3; type: cell-based, human; set-up: key to IC50 PC-3: PCV: Promoting cell viability; NSC: No significant change; conditions: for IC50 PC-3 / IC50: MTS assay, 72 h incubation; for IC50: Homo sapiens, PC-3
Description: as §1, §2

[7] = tested on: HEK293 cell line; assay: Annexin V/PI apoptosis assay, HEK293; type: cell-based; conditions: FITC-Annexin V/PI flow cytometry
Description: (§3) Evaluation of the effect of the synthesized compounds on apoptosis was determined by the FITCH-AnnexinV/PI protocol. Damaged cell membrane of necrotic cell enables propidium iodide (PI) to bind DNA and induces a red fluorescence, although it is excluded by non-damaged cells, select live and apoptotic cells. FITCH-Annexin V has the ability to bind to phosphatidylserine which is a specific marker of apoptosis. […] The lower left panel of the quadrant of the cytograms indicates live cells due to exclusion of PI and non-bound Annexin V.
(§4) The upper left panel of the cytogram represents necrotic cells which are positive for PI. Each cytogram of each cell was analyzed and a histogram graph was drawn for further visual information.
Determination of IC50 values was followed by the investigation of effect of the synthesized compounds on apoptosis. Cells were seeded into six well plates at densities of 15,000 cells/well (PC-3, HCT116 and HEK293 cell lines) and 60,000 cells/well (T47D cell lines). After the treatment cells were harvested and washed with ice cold PBS. 1 × Annexin-binding buffer was prepared while the cells were being washed. Working solution of PI (100 µg/mL) was prepared as well by diluting 5 µL of the 1 mg/mL PI stock solution in 45 µL 1 × Annexin-binding buffer. After the precipitation of the cells, they were resuspended in 500 µL 1 × Annexin-binding buffer. Resuspended cells were separated into four groups (Annexin V, PI, Annexin V + PI and NC) each containing 100 µL of suspension. Five µL of the Annexin V conjugate was added to the proper groups. Samples were incubated for 15 min at room temperature. The incubation step was followed by adding 2 µL of the 100 µg/mL PI working solution to the proper groups then the fluorescence was observed by flow cytometry.

[8] = tested on: PC-3 cell line; assay: Annexin V/PI apoptosis assay, PC-3; type: cell-based, human; conditions: FITC-Annexin V/PI flow cytometry
Description: as §3, §4
(§5) Determination of IC50 values was followed by the investigation of effect of the synthesized compounds on apoptosis. Cells were seeded into six well plates at densities of 15,000 cells/well (PC-3, HCT116 and HEK293 cell lines) and 60,000 cells/well (T47D cell lines). After the treatment cells were harvested and washed with ice cold PBS. 1 × Annexin-binding buffer was prepared while the cells were being washed. […] The incubation step was followed by adding 2 µL of the 100 µg/mL PI working solution to the proper groups then the fluorescence was observed by flow cytometry.

[9] = tested on: HCT116 cell line; assay: MTS cytotoxicity assay, HCT116; type: cell-based, human; conditions: for IC50: Homo sapiens, HCT-116, MTS assay, 72 h incubation
Description: as §1, §2

[10] = tested on: MCF7 cell line; assay: MTS cytotoxicity assay, MCF7; type: cell-based; conditions: Homo sapiens, 72 h incubation
Description: as §1, §2

[11] = tested on: T47D cell line; assay: Annexin V/PI apoptosis assay, T47D; type: cell-based, human; conditions: FITC-Annexin V/PI flow cytometry
Description: as §3, §4, §5

[12] = tested on: HCT116 cell line; assay: Annexin V/PI apoptosis assay, HCT116; type: cell-based, human; conditions: FITC-Annexin V/PI flow cytometry
Description: as §3, §4, §5

## N.N.[Cl][Pt][Cl] [Cisplatin]
[1]
  IC50: 39.9 µM
[2]
  IC50: 0.836 µM
[3]
  IC50: 1.25 µM

## O=C(NNC(=S)Nc1cccc(F)c1)c1cc(-c2ccc(F)cc2F)ccc1O [Compound 4]
[4]
  IC50: 617 µM
[5]
  IC50 T47D: PCV
[6]
  IC50 PC-3: PCV

## O=C(NNC(=S)Nc1cccc(Cl)c1)c1cc(-c2ccc(F)cc2F)ccc1O [Compound 5]
[4]
  IC50: 44.4 µM

## O=C(NNC(=S)Nc1cccc(Br)c1)c1cc(-c2ccc(F)cc2F)ccc1O [Compound 6, N-(3-Bromophenyl)-2-[(2′,4′-difluoro-4-hydroxybiphenyl-3-yl)carbonyl]hydrazine carbothioamide]
[4]
  IC50: 93 ± 3.43 µM
  cytotoxic effect on HEK293 (in words): did not show cytotoxic effects
[7]
  apoptosis / necrosis, HEK293: did not result in apoptosis
[5]
  IC50: 100 ± 2.3 µM
[8]
  apoptosis / necrosis, PC-3: increase of late apoptosis markers; also recorded: undergo apoptosis highly
[6]
  anticancer activity against PC-3 (in words): displayed anti-tumourigenic activity
  IC50: 41.8 ± 3.4 µM

## O=C(NNC(=S)Nc1ccc(Br)cc1)c1cc(-c2ccc(F)cc2F)ccc1O [Compound 7, N-(4-Bromophenyl)-2-[(2′,4′-difluoro-4-hydroxybiphenyl-3-yl)carbonyl]hydrazine carbothioamide]
[4]
  IC50: 3.17 ± 1.06 µM
[5]
  IC50: 16.7 ± 2.8 µM
[6]
  IC50: 11.7 ± 4.2 µM

## O=C(NC(=S)NNC(=O)c1cc(-c2ccc(F)cc2F)ccc1O)c1ccccc1 [Compound 8, N-({2-[(2′,4′-Difluoro-4-hydroxybiphenyl-3-yl)carbonyl]hydrazinyl}carbonothioyl)benzamide]
[4]
  IC50: 5.04 ± 1.5 µM
[5]
  IC50: 8.07 ± 2 µM
[6]
  IC50: 2.85 ± 3.6 µM
[9]
  IC50: 3.68 ± 2.1 µM

## COc1ccccc1NC(=S)NNC(=O)c1cc(-c2ccc(F)cc2F)ccc1O [Compound 9, 2-[(2′,4′-Difluoro-4-hydroxybiphenyl-3-yl)carbonyl]-N-(2-methoxyphenyl)hydrazine carbothioamide]
[4]
  IC50: 3.02 ± 1.9 µM
[5]
  IC50: 3.86 ± 0.7 µM
[10]
  IC50: 3.92 ± 0.27 µM
[6]
  IC50: 1.57 ± 1.4 µM
[9]
  IC50: 1.83 ± 0.92 µM

## CCc1ccc(NC(=S)NNC(=O)c2cc(-c3ccc(F)cc3F)ccc2O)cc1 [Compound 10, 2-[(2′,4′-Difluoro-4-hydroxybiphenyl-3-yl)carbonyl]-N-(4-ethylphenyl)hydrazine carbothioamide]
[4]
  IC50: 94 ± 3.74 µM
  cytotoxic effect on HEK293 (in words): did not show cytotoxic effects
[7]
  apoptosis / necrosis, HEK293: slight insignificant increase in necrosis; also recorded: did not result in apoptosis
[5]
  IC50 T47D: NSC
[8]
  apoptosis / necrosis, PC-3: increase of late apoptosis markers; also recorded: undergo apoptosis highly
[6]
  anticancer activity against PC-3 (in words): displayed anti-tumourigenic activity
  IC50: 11.7 ± 2.6 µM

## CCCn1c(-c2cc(-c3ccc(F)cc3F)ccc2O)n[nH]c1=S [Compound 11, 5-(2′,4′-Difluoro-4-hydroxybiphenyl-3-yl)-4-propyl-2,4-dihydro-3H-1,2,4-triazole-3-thione]
[4]
  IC50: 11.5 ± 0.2 µM
[5]
  IC50: 10.1 ± 1.57 µM
[10]
  IC50: 22.2 ± 2.3 µM
[6]
  IC50: 174 ± 6.3 µM

## Oc1ccc(-c2ccc(F)cc2F)cc1-c1n[nH]c(=S)n1-c1cccc(F)c1 [Compound 12, 5-(2′,4′-Difluoro-4-hydroxybiphenyl-3-yl)-4-(3-fluorophenyl)-2,4-dihydro-3H-1,2,4-triazole-3-thione]
[4]
  IC50: 10.7 ± 0.96 µM
[5]
  IC50: 9.24 ± 1.01 µM
[10]
  IC50: 15 ± 1.3 µM
[6]
  IC50: 34 ± 2.1 µM

## Oc1ccc(-c2ccc(F)cc2F)cc1-c1n[nH]c(=S)n1-c1cccc(Cl)c1 [Compound 13, 4-(3-Chlorophenyl)-5-(2′,4′-difluoro-4-hydroxybiphenyl-3-yl)-2,4-dihydro-3H-1,2,4-triazole-3-thione]
[4]
  IC50: 8.7 ± 1.79 µM
[5]
  IC50: 5.55 ± 2.7 µM
[10]
  IC50: 12.9 ± 2.1 µM
[6]
  IC50: 34.1 ± 3.7 µM

## Oc1ccc(-c2ccc(F)cc2F)cc1-c1n[nH]c(=S)n1-c1cccc(Br)c1 [Compound 14, 4-(3-Bromophenyl)-5-(2′,4′-difluoro-4-hydroxybiphenyl-3-yl)-2,4-dihydro-3H-1,2,4-triazole-3-thione]
[5]
  IC50: 11.5 ± 1.8 µM
[6]
  IC50 PC-3: PCV

## Oc1ccc(-c2ccc(F)cc2F)cc1-c1n[nH]c(=S)n1-c1ccc(Br)cc1 [Compound 15, 4-(4-Bromophenyl)-5-(2′,4′-difluoro-4-hydroxybiphenyl-3-yl)-2,4-dihydro-3H-1,2,4-triazole-3-thione]
[4]
  IC50: 145 ± 2.3 µM
  cytotoxic effect on HEK293 (in words): did not show cytotoxic effects
[7]
  apoptosis / necrosis, HEK293: did not result in apoptosis
[5]
  anticancer activity against T47D (in words): demonstrated anticancer activity
  IC50: 43.4 ± 2.72 µM
[11]
  apoptosis / necrosis, T47D: vast late apoptosis; also recorded: largely through late apoptosis
[6]
  anticancer activity against PC-3 (in words): did not show any activity
  IC50: 145 ± 2.8 µM
[9]
  anticancer activity against HCT-116 (in words): did not show any activity

## COc1ccccc1-n1c(-c2cc(-c3ccc(F)cc3F)ccc2O)n[nH]c1=S [Compound 16, 5-(2′,4′-Difluoro-4-hydroxybiphenyl-3-yl)-4-(2-methoxyphenyl)-2,4-dihydro-3H-1,2,4-triazole-3-thione]
[12]
  apoptosis / necrosis, HCT116: extensive apoptotic effect
[4]
  IC50: 53 ± 2.39 µM
  cytotoxic effect on HEK293 (in words): did not show cytotoxic effects
[7]
  apoptosis / necrosis, HEK293: did not result in apoptosis
[5]
  anticancer activity against T47D (in words): demonstrated anticancer activity
  IC50: 27.3 ± 2.28 µM
[11]
  apoptosis / necrosis, T47D: resulted in necrosis
[6]
  IC50: 169 ± 3.9 µM
[9]
  anticancer activity against HCT-116 (in words): displayed activity
  IC50: 6.2 ± 3.1 µM
